Laboratory results taken from the NIST ThermoML archive (doi:10.1021/je060271a).
Where “and” joins values, the source holds several entries; their conditions need not be identical. Equal values may be shown once.

Conditions: 283.16 K, Liquid, Vibrating tube method

CCCCCC(=O)OCC(COC(=O)CCCCC)(COC(=O)CCCCC)COC(=O)CCCCC [pentaerythritol tetrahexanoate]
Conditions	mass density
227.4 kPa	1004.4 kg/m3
235.2 kPa	1004.3 kg/m3
235.3 kPa	1004.3 kg/m3
237.1 kPa	1004.4 kg/m3
361.3 kPa	1004.3 kg/m3
363.1 kPa	1004.3 kg/m3
365.9 kPa	1004.3 kg/m3
403.2 kPa	1004.4 kg/m3
405.8 kPa	1004.3 kg/m3
408.6 kPa	1004.4 kg/m3
410.7 kPa	1004.4 kg/m3
439.2 kPa	1004.4 kg/m3
500.7 kPa	1004.3 kg/m3
504.2 kPa	1004.4 kg/m3
508.2 kPa	1004.5 kg/m3
663.2 kPa	1004.4 kg/m3
669.2 kPa	1004.5 kg/m3
813.4 kPa	1004.5 kg/m3
1597.6 kPa	1005.1 kg/m3
1612.4 kPa	1005 kg/m3
1627.1 kPa	1005.2 kg/m3
1642.8 kPa	1005.2 kg/m3
1657.5 kPa	1005.1 kg/m3
1675.4 kPa	1005.1 kg/m3
1690.5 kPa	1005.2 kg/m3
1705.1 kPa	1005.2 kg/m3
1720 kPa	1005.1 kg/m3
1767.2 kPa	1005.1 kg/m3
1782.2 kPa	1005.2 kg/m3
1800 kPa	1005.2 kg/m3
1833.4 kPa	1005.3 kg/m3
1844.8 kPa	1005.2 kg/m3
2221.4 kPa	1005.5 kg/m3
2237 kPa	1005.5 kg/m3
2251.7 kPa	1005.5 kg/m3
2267.5 kPa	1005.4 kg/m3
2279.3 kPa	1005.5 kg/m3
2540.2 kPa	1005.7 kg/m3
2564.1 kPa	1005.7 kg/m3
2812.8 kPa	1005.7 kg/m3
2855.3 kPa	1005.8 kg/m3
3252.2 kPa	1006 kg/m3
3270.9 kPa	1006.1 kg/m3
3286.9 kPa	1006.1 kg/m3
3302.6 kPa	1006.1 kg/m3
3318.6 kPa	1006.2 kg/m3
3372.5 kPa	1006.1 kg/m3
3388.4 kPa	1006.1 kg/m3
3420.8 kPa	1006.1 kg/m3
3440.8 kPa	1006.1 kg/m3
3456.7 kPa	1006.1 kg/m3
3473.5 kPa	1006.1 kg/m3
3493.4 kPa	1006.3 kg/m3
3510.2 kPa	1006.3 kg/m3
3530.5 kPa	1006.2 kg/m3
3547.3 kPa	1006.3 kg/m3
3564.3 kPa	1006.2 kg/m3
3581.1 kPa	1006.3 kg/m3
3601.7 kPa	1006.3 kg/m3
3619.1 kPa	1006.3 kg/m3
3636 kPa	1006.1 kg/m3
3657.3 kPa	1006.3 kg/m3
3674.7 kPa	1006.2 kg/m3
3692.2 kPa	1006.3 kg/m3
3709.8 kPa	1006.3 kg/m3
3730.8 kPa	1006.4 kg/m3
3748.8 kPa	1006.3 kg/m3
3766.1 kPa	1006.4 kg/m3
3784.2 kPa	1006.4 kg/m3
3805.3 kPa	1006.3 kg/m3
3823 kPa	1006.3 kg/m3
3841.3 kPa	1006.5 kg/m3
3863 kPa	1006.3 kg/m3
3877.2 kPa	1006.4 kg/m3
3895.2 kPa	1006.5 kg/m3
3920.3 kPa	1006.4 kg/m3
3938.5 kPa	1006.5 kg/m3
4764.4 kPa	1006.8 kg/m3
4769.6 kPa	1006.9 kg/m3
4781 kPa	1006.9 kg/m3
4797.5 kPa	1007 kg/m3
5309.2 kPa	1007.3 kg/m3
5315.8 kPa	1007.3 kg/m3
5321.5 kPa	1007.3 kg/m3
5327.9 kPa	1007.2 kg/m3
5334.1 kPa	1007.3 kg/m3
5341.5 kPa	1007.2 kg/m3
5347.3 kPa	1007.4 kg/m3
5354.7 kPa	1007.4 kg/m3
5361.1 kPa	1007.3 kg/m3
5367.3 kPa	1007.2 kg/m3
5373.4 kPa	1007.3 kg/m3
5380.6 kPa	1007.3 kg/m3
5386.9 kPa	1007.3 kg/m3
5392.9 kPa	1007.3 kg/m3
5400.4 kPa	1007.2 kg/m3
5406.9 kPa	1007.2 kg/m3
5413 kPa	1007.3 kg/m3
5419.4 kPa	1007.3 kg/m3
5426.8 kPa	1007.3 kg/m3
5432 kPa	1007.3 kg/m3
5438.4 kPa	1007.3 kg/m3
5446 kPa	1007.4 kg/m3
5521.9 kPa	1007.3 kg/m3
6618.4 kPa	1007.9 kg/m3
6623.1 kPa	1008.1 kg/m3
6626.7 kPa	1008 kg/m3
6630.5 kPa	1008.2 kg/m3
6653 kPa	1008 kg/m3
6657.1 kPa	1008.1 kg/m3
6661.4 kPa	1008 kg/m3
6666.3 kPa	1008 kg/m3
6670.4 kPa	1008 kg/m3
6722 kPa	1008 kg/m3
6726 kPa	1008.1 kg/m3
6730.2 kPa	1008.1 kg/m3
6734.1 kPa	1008.1 kg/m3
6738.3 kPa	1008 kg/m3
6743.3 kPa	1008.1 kg/m3
6747.1 kPa	1007.9 kg/m3
6750.9 kPa	1008 kg/m3
6755.6 kPa	1008 kg/m3
6763.5 kPa	1008.2 kg/m3
6768 kPa	1008 kg/m3
6772.6 kPa	1008 kg/m3
6775.9 kPa	1008.2 kg/m3 and 1008.1 kg/m3
6776.4 kPa	1008.1 kg/m3 and 1008 kg/m3
6783.8 kPa	1008 kg/m3
6784.2 kPa	1008.2 kg/m3
6784.5 kPa	1008 kg/m3
6785.8 kPa	1008.2 kg/m3
8353.5 kPa	1009.1 kg/m3
8367.6 kPa	1008.9 kg/m3
9689.3 kPa	1009.7 kg/m3 and 1009.8 kg/m3
9689.5 kPa	1009.7 kg/m3
9689.6 kPa	1009.7 kg/m3
9689.8 kPa	1009.7 kg/m3
9690.2 kPa	1009.8 kg/m3
9691.7 kPa	1009.7 kg/m3
9694.6 kPa	1009.8 kg/m3
9697.7 kPa	1009.8 kg/m3
9697.9 kPa	1009.8 kg/m3 and 1009.9 kg/m3
9702.1 kPa	1009.8 kg/m3
9711.5 kPa	1009.8 kg/m3
